Measurements taken from US9963434B2, “N-arylmethyl sulfonamide negative modulators of NR2A” (LUC THERAPEUTICS, priority 2013, dated 2018).
Where two headings read alike, the source gives them in different places.

Target: NR1/NR2A (Homo sapiens (Human), UniProt Q05586+Q12879)
Test: FDSS Ca2+ influx inhibition assay in HEK293 cells expressing NR1/NR2A
Type: cell-based
Conditions: 3 μM glutamate, 3 μM glycine, 1 mM Ca2+
Procedure, shortened: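 Fluo-8-loaded HEK293 NR1/NR2A cells preincubated 10 min with compound at 10 μM final (0.1% DMSO) in Ca2+/Mg2+-free HBSS with 20 mM HEPES. Stimulated with 3 μM glutamate, 3 μM glycine, 1 mM Ca2+; FDSS recording for 3 min, end/baseline fluorescence ratio compared with MK801.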

[1] = inhibition relative to MK801, read-out: NR2A IC50

Sequence of NR1/NR2A (Q12879 23-1464, other chains not shown): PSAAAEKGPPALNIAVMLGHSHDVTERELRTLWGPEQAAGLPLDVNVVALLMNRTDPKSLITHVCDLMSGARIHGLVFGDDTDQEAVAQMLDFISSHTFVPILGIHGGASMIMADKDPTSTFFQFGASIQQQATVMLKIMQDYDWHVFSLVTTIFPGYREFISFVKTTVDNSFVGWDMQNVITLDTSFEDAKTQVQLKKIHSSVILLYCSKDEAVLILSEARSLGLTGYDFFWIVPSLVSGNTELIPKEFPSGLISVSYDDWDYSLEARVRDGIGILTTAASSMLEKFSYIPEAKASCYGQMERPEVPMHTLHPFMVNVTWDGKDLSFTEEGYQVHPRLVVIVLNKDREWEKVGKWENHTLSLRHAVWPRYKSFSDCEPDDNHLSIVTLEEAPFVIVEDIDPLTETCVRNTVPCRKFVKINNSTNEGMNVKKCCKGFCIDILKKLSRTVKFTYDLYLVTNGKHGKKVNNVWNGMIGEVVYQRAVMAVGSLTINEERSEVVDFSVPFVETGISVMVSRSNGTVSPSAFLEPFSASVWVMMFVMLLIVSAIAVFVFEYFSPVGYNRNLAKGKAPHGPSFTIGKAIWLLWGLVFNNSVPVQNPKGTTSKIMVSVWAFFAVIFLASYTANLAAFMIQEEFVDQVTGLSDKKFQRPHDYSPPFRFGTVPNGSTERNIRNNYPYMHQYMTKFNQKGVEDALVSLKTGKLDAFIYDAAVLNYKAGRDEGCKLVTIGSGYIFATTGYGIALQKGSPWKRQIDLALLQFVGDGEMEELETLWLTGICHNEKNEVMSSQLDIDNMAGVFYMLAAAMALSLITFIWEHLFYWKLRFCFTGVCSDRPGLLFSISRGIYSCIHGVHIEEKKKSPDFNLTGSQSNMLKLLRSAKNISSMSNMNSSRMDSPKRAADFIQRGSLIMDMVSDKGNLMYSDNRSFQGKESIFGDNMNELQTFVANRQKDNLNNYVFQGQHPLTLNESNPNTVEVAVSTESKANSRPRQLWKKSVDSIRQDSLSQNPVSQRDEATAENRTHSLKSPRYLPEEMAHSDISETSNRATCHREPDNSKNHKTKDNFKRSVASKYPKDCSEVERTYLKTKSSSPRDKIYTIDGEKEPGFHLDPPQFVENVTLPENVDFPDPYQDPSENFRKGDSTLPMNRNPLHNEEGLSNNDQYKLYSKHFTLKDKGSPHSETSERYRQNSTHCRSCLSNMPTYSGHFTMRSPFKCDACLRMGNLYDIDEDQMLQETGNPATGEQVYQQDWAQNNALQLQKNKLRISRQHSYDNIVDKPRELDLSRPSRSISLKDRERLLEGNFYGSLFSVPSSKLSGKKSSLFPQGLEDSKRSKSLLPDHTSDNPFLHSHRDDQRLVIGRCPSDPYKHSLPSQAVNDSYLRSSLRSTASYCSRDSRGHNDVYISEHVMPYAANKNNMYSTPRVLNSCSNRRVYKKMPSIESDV

| Compound | IC50 [1] [µM] | IC50 (read-out: Binned Activity) [µM] |
| --- | --- | --- |
| C[C@@H](NC(=O)c1ccc(CNS(=O)(=O)c2ccc(F)c(Cl)c2)nc1)c1cncs1 [6-(3-chloro-4-fluorobenzenesulfon-amidomethyl)-N-[(1R)-1-(1,3-thiazol-5-yl)ethyl]pyridine-3-carboxamide] | 10 |  |
| O=C(NCc1ccco1)c1ccc(CNS(=O)(=O)c2ccc(F)c(Cl)c2)nn1 [6-(3-chloro-4-fluorobenzenesulfon-amidomethyl)-N-(furan-2-ylmethyl)pyridazine-3-carboxamide] | 10 | > 10 |
| O=C(NC1CCS(=O)(=O)C1)c1cnc(CNS(=O)(=O)c2ccc(F)c(Cl)c2)cn1 (stereo not shown) [5-(3-chloro-4-fluorobenzenesulfon-amidomethyl)-N-(1,1-dioxo-1λ^6-thiolan-3-yl)pyrazine-2-carboxamide] | 10 | > 10 |
| Cc1csc(CNC(=O)c2cnc(CNS(=O)(=O)c3ccc(F)c(Cl)c3)cn2)n1 [5-(3-chloro-4-fluorobenzenesulfon-amidomethyl)-N-[(4-methyl-1,3-thiazol-2-yl)methyl]pyrazine-2-carboxamide] | 10 |  |
| Cc1ccc(CNC(=O)c2ccc(CNS(=O)(=O)c3ccc(F)c(Cl)c3)nc2)s1 [6-(3-chloro-4-fluorobenzenesulfon-amidomethyl)-N-[(5-methylthiophen-2-yl)methyl]pyridine-3-carboxamide] | 10 | > 10 |
| Cc1ncc(CNC(=O)c2cnc(CNS(=O)(=O)c3ccc(F)c(Cl)c3)c(C)n2)s1 [5-(3-chloro-4-fluorobenzenesulfon-amidomethyl)-6-methyl-N-[(2-methyl-1,3-thiazol-5-yl)methyl]pyrazine-2-carboxamide] |  | < 0.1 |
| CN(C)CCCNC(=O)c1ccc(CNS(=O)(=O)c2ccc(F)c(Cl)c2)nc1 [6-(3-chloro-4-fluorobenzenesulfon-amidomethyl)-N-[3-(dimethylamino)propyl] pyridine-3-carboxamide] | 10 | > 10 |
| Cc1ncc(CNC(=O)c2ccc(CNC(=O)c3cccc(C#N)c3)cn2)s1 [5-{[(3-cyanophenyl)formamido]methyl}-N-[(2-methyl-1,3-thiazol-5-yl)methyl]pyridine-2-carboxamide] | 10 | > 10 |
| Cc1ncc(CNC(=O)c2cnc(CNS(=O)(=O)c3cccs3)cn2)s1 [N-[(2-methyl-1,3-thiazol-5-yl)methyl]-5-(thiophene-2-sulfonamidomethyl) pyrazine-2-carboxamide] |  | 1 to 10 |
| Cc1ncc(CNC(=O)c2cnc(CNS(=O)(=O)c3ccc(F)cc3)c(C)n2)s1 [5-(4-fluorobenzenesulfon-amidomethyl)-6-methyl-N-[(2-methyl-1,3-thiazol-5-yl)methyl]pyrazine-2-carboxamide] |  | 0.1 to 1 |
| CC(NC(=O)c1ccc(CNS(=O)(=O)c2ccc(F)c(Cl)c2)nn1)c1ccco1 (stereo not shown) [6-(3-chloro-4-fluorobenzenesulfon-amidomethyl)-N-[1-(furan-2-yl)ethyl]pyridazine-3-carboxamide] | 10 | > 10 |
| O=C(NCc1cncs1)c1cnc(CNS(=O)(=O)c2ccc(F)c(Cl)c2)cn1 [5-(3-chloro-4-fluorobenzenesulfon-amidomethyl)-N-(1,3-thiazol-5-ylmethyl)pyrazine-2-carboxamide] |  | 0.1 to 1 |
| Cc1ncc(CNC(=O)c2cnc(CNC(=O)c3ccc(Cl)c(Cl)c3)cn2)s1 [5-{[(3,4-dichlorophenyl)form-amido]methyl}-N-[(2-methyl-1,3-thiazol-5-yl)methyl]pyrazine-2-carboxamide] | 10 | > 10 |
| Cc1ncc(CNC(=O)c2ccc(CNS(=O)(=O)c3ccc(F)cc3)cn2)s1 [5-(4-fluorobenzenesulfon-amidomethyl)-N-[(2-methyl-1,3-thiazol-5-yl)methyl]pyridine-2-carboxamide] |  | 1 to 10 |
| O=C(NCc1ccncn1)c1ccc(CNS(=O)(=O)c2ccc(F)c(Cl)c2)nc1 [6-(3-chloro-4-fluorobenzenesulfon-amidomethyl)-N-(pyrimidin-4-ylmethyl)pyridine-3-carboxamide] | 10 | > 10 |

The remaining lines, values ahead:

| IC50 [1] [µM] | IC50 (read-out: Binned Activity) [µM] | Compound |
| --- | --- | --- |
| 10 | > 10 | O=C(NCc1cocn1)c1ccc(CNS(=O)(=O)c2ccc(F)c(Cl)c2)cn1 [5-(3-chloro-4-fluorobenzenesulfon-amidomethyl)-N-(1,3-oxazol-4-ylmethyl)pyridine-2-carboxamide] |
|  | 0.1 to 1 | O=C(NCc1cccnc1)c1cnc(CNS(=O)(=O)c2ccc(F)c(Cl)c2)cn1 [5-(3-chloro-4-fluorobenzenesulfon-amidomethyl)-N-(pyridin-3-ylmethyl)pyrazine-2-carboxamide] |
| 10 | > 10 | Cc1ncsc1CNC(=O)c1ccc(CNS(=O)(=O)c2ccc(F)c(Cl)c2)cn1 [5-(3-chloro-4-fluorobenzenesulfon-amidomethyl)-N-[(4-methyl-1,3-thiazol-5-yl)methyl]pyridine-2-carboxamide] |
| 10 | > 10 | O=C(NCc1ccccn1)c1ccc(CNS(=O)(=O)c2ccc(F)c(Cl)c2)cn1 [5-(3-chloro-4-fluorobenzenesulfon-amidomethyl)-N-(pyridin-2-ylmethyl)pyridine-2-carboxamide] |
| 10 | > 10 | O=C(NCc1ncc(C(F)(F)F)cc1Cl)c1ccc(CNS(=O)(=O)c2ccc(F)c(Cl)c2)cn1 [5-(3-chloro-4-fluorobenzenesulfon-amidomethyl)-N-{[3-chloro-5-(trifluoromethyl)pyridin-2-yl]methyl}pyridine-2-carboxamide] |
|  | 1 to 10 | Cc1ncc(CNC(=O)c2ccc(CNS(=O)(=O)c3ccc(Cl)c(Cl)c3)cn2)s1 [5-(3,4-dichlorobenzenesulfon-amidomethyl)-N-[(2-methyl-1,3-thiazol-5-yl)methyl]pyridine-2-carboxamide] |
| 10 | > 10 | Cn1ccnc1CNC(=O)c1cnc(CNS(=O)(=O)c2ccc(F)c(Cl)c2)cn1 [5-(3-chloro-4-fluorobenzenesulfon-amidomethyl)-N-[(1-methyl-1H-imidazol-2-yl)methyl]pyrazine-2-carboxamide] |
| 10 | > 10 | Cn1cnc(CNC(=O)c2ccc(CNS(=O)(=O)c3ccc(F)c(Cl)c3)nc2)c1 [6-(3-chloro-4-fluorobenzenesulfon-amidomethyl)-N-[(1-methyl-1H-imidazol-4-yl)methyl]pyridine-3-carboxamide] |
| 10 | > 10 | COc1ccc(CNC(=O)c2ccc(CNS(=O)(=O)c3ccc(F)c(Cl)c3)cn2)cc1 [5-(3-chloro-4-fluorobenzenesulfon-amidomethyl)-N-[(4-methoxyphenyl)methyl] pyridine-2-carboxamide] |
| 10 | > 10 | COc1ccc(CNC(=O)c2cnc(CNS(=O)(=O)c3ccc(F)c(Cl)c3)cn2)cc1 [5-(3-chloro-4-fluorobenzenesulfon-amidomethyl)-N-[(4-methoxyphenyl)methyl] pyrazine-2-carboxamide] |
|  | 1 to 10 | Cc1ncc(CNC(=O)c2ccc(CNS(=O)(=O)c3ccc(Cl)c(F)c3)cn2)s1 [5-(4-chloro-3-fluorobenzenesulfon-amidomethyl)-N-[(2-methyl-1,3-thiazol-5-yl)methyl]pyridine-2-carboxamide] |
| 10 | > 10 | Cc1cccc(CNC(=O)c2cnc(CNS(=O)(=O)c3ccc(F)c(Cl)c3)cn2)n1 [5-(3-chloro-4-fluorobenzenesulfon-amidomethyl)-N-[(6-methylpyridin-2-yl)methyl]pyrazine-2-carboxamide] |
|  | 1 to 10 | O=C(NCc1nccs1)c1ccc(CNS(=O)(=O)c2ccc(F)c(Cl)c2)cn1 [5-(3-chloro-4-fluorobenzenesulfon-amidomethyl)-N-(1,3-thiazol-2-ylmethyl)pyridine-2-carboxamide] |
|  | 1 to 10 | O=C(NCc1ccncc1)c1cnc(CNS(=O)(=O)c2ccc(F)c(Cl)c2)cn1 [5-(3-chloro-4-fluorobenzenesulfon-amidomethyl)-N-(pyridin-4-ylmethyl)pyrazine-2-carboxamide] |
| 10 | > 10 | CN(C)CCNC(=O)c1ccc(CNS(=O)(=O)c2ccc(F)c(Cl)c2)cn1 [5-(3-chloro-4-fluorobenzenesulfon-amidomethyl)-N-[2-(dimethylamino)ethyl] pyridine-2-carboxamide] |
| 10 | > 10 | Cn1cnc(CNC(=O)c2ccc(CNS(=O)(=O)c3ccc(F)c(Cl)c3)nn2)c1 [6-(3-chloro-4-fluorobenzenesulfon-amidomethyl)-N-[(1-methyl-1H-imidazol-4-yl)methyl]pyridazine-3-carboxamide] |
| 10 | > 10 | O=C(NCc1ncccc1C(F)(F)F)c1ccc(CNS(=O)(=O)c2ccc(F)c(Cl)c2)cn1 [5-(3-chloro-4-fluorobenzenesulfon-amidomethyl)-N-{[3-(trifluoromethyl)pyridin-2-yl]methyl}pyridine-2-carboxamide] |
|  | 1 to 10 | Cn1cc(CNC(=O)c2ccc(CNS(=O)(=O)c3ccc(F)c(Cl)c3)cn2)cn1 [5-(3-chloro-4-fluorobenzenesulfon-amidomethyl)-N-[(1-methyl-1H-pyrazol-4-yl)methyl]pyridine-2-carboxamide] |
|  | 1 to 10 | Cc1nnc(CNC(=O)c2ccc(CNS(=O)(=O)c3ccc(F)c(Cl)c3)cn2)s1 [5-(3-chloro-4-fluorobenzenesulfon-amidomethyl)-N-[(5-methyl-1,3,4-thiadiazol-2-yl)methyl]pyridine-2-carboxamide] |
| 10 | > 10 | O=C(NCc1cncnc1)c1ccc(CNS(=O)(=O)c2ccc(F)c(Cl)c2)nn1 [6-(3-chloro-4-fluorobenzenesulfon-amidomethyl)-N-(pyrimidin-5-ylmethyl)pyridazine-3-carboxamide] |
| 10 | > 10 | Cc1cccc(CNC(=O)c2ccc(CNS(=O)(=O)c3ccc(F)c(Cl)c3)cn2)n1 [5-(3-chloro-4-fluorobenzenesulfon-amidomethyl)-N-[(6-methylpyridin-2-yl)methyl]pyridine-2-carboxamide] |
